Measured values reported in patent US12257247B2 (Monte Rosa Therapeutics AG, priority 2023, dated 2025).
Where two headings read alike, the source gives them in different places.

Biological target: T1, VAV1 (Homo sapiens, UniProt P15498+Q96SW2)
T1 construct: A heterozygous VAV1 C-terminal HiBiT knock-in pool was generated at Monte Rosa Therapeutics from a clonal Jurkat cell; endogenous in cells; host or cells: Jurkat clone stably expressing LgBiT, homozygous GSPT1-G575N; heterozygous VAV1-HiBiT knock-in pool
Test: VAV1 degradation activity, VAV1-HiBiT knock-in Jurkat luminescence assay (Example A, Table 1)
Assay type: cell-based
Details: VAV1-HiBiT knock-in Jurkat cells; for Dmax: Jurkat
Summary of the method: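 Luminescence was measured at 6 and 24 h after adding compound (10 μM stock) to VAV1-HiBiT knock-in Jurkat cells, which had been pre-incubated ~16 h at 37° C. in RPMI/10% FBS containing Endurazine. EC50 values came from control-normalised responses fitted to a 3-parameter logistic model with hillslope fixed at 1.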

[1] = luminescence read at 6 and 24 hours, read-out: VAV1 Dmax %
[2] = luminescence read at 6 and 24 hours, read-out: VAV1 Dmax %, class
[3] = luminescence read at 6 and 24 hours, read-out: VAV1 DC50
[4] = luminescence read at 6 and 24 hours, read-out: VAV1 DC50 (nM), class

SMILES | Dmax [1] | Dmax [2] | DC50 [3] | DC50 [4] | Dmax (luminescence read at 6 and 24 hours after compound addition, read-out: VAV1 Dmax %) | Dmax (luminescence read at 6 and 24 hours after compound addition, read-out: VAV1 Dmax %, class) | DC50 (luminescence read at 6 and 24 hours after compound addition, read-out: VAV1 DC50) | DC50 (luminescence read at 6 and 24 hours after compound addition, read-out: VAV1 DC50 (nM), class)
O=C1CCC(c2cccc(-c3ccc(Cc4nccc(C(F)(F)F)n4)cc3)c2Cl)C(=O)N1 (stereo not shown) [Compound 347, 3-(2-chloro-4′-((4-(trifluoromethyl)pyrimidin-2-yl)methyl)-[1,1′-biphenyl]-3-yl)piperidine-2,6-dione] | 96.4% | > 90% | 17.1 nM | ≤ 100 nM |  |  |  | 
O=C1CCC(c2cccc(-c3ccc(-n4cc(F)ccc4=O)cc3)c2Cl)C(=O)N1 (stereo not shown) [Compound 246, 3-(2-chloro-4′-(5-fluoro-2-oxopyridin-1(2H)-yl)-[1,1′-biphenyl]-3-yl)piperidine-2,6-dione] | 94.3% | > 90% | 17.5 nM | ≤ 100 nM |  |  |  | 
Cn1ccc(CNc2ccc(-c3cccc(C4CCC(=O)NC4=O)c3Cl)cc2)n1 (stereo not shown) [Compound 180, 3-(2-chloro-4′-(((1-methyl-1H-pyrazol-3-yl)methyl)amino)-[1,1′-biphenyl]-3-yl)piperidine-2,6-dione] | 88.8% | 60 to 90% | 11.5 nM | ≤ 100 nM |  |  |  | 
O=C1CCC(c2cccc(-c3ccc(Cn4cccnc4=O)nc3)c2Cl)C(=O)N1 (stereo not shown) [Compound 434, 3-(2-chloro-3-(6-((2-oxopyrimidin-1(2H)-yl)methyl)pyridin-3-yl)phenyl)piperidine-2,6-dione] | 46.2% | < 60% | ≥ 10000 nM | > 1000 nM |  |  |  | 
O=C1CCC(c2cccc(-c3ccc(N4C(=O)CCCC4=O)cc3)c2Cl)C(=O)N1 (stereo not shown) [Compound 205, 1-(2′-chloro-3′-(2,6-dioxopiperidin-3-yl)-[1,1′-biphenyl]-4-yl)piperidine-2,6-dione] | 90.4% | > 90% | 16.4 nM | ≤ 100 nM |  |  |  | 
O=C1CCC(c2cccc(-c3ccc(Cc4ncccn4)nc3)c2Cl)C(=O)N1 (stereo not shown) [Compound 400, 3-(2-chloro-3-(6-(pyrimidin-2-ylmethyl)pyridin-3-yl)phenyl)piperidine-2,6-dione] | 81.5% | 60 to 90% | 77 nM | ≤ 100 nM |  |  |  | 
O=C1CCC(c2cccc(-c3ccc(CN4Cc5ncccc5C4=O)cc3)c2Cl)C(=O)N1 (stereo not shown) [Compound 298] | 95.4% | > 90% | 11.7 nM | ≤ 100 nM |  |  |  | 
O=C1CCC(c2cccc(-c3ccc(N4COCCC4=O)cc3)c2Cl)C(=O)N1 (stereo not shown) [Compound 467, 3-(2-chloro-4′-(4-oxo-1,3-oxazinan-3-yl)-[1,1′-biphenyl]-3-yl)piperidine-2,6-dione] | 95% | > 90% | 11.5 nM | ≤ 100 nM |  |  |  | 
CC(c1ccc(-c2cccc(C3CCC(=O)NC3=O)c2Cl)cc1)n1ccccc1=O (stereo not shown) [Compound 174, 3-(2-chloro-4′-(1-(2-oxopyridin-1(2H)-yl)ethyl)-[1,1′-biphenyl]-3-yl)piperidine-2,6-dione] | 92.2% | > 90% | 27.4 nM | ≤ 100 nM |  |  |  | 
Cn1cc(CNc2ccc(-c3cccc(C4CCC(=O)NC4=O)c3Cl)cc2)cn1 (stereo not shown) [Compound 193, 3-(2-chloro-4′-(((1-methyl-1H-pyrazol-4-yl)methyl)amino)-[1,1′-biphenyl]-3-yl)piperidine-2,6-dione] | 91.7% | > 90% | 13.3 nM | ≤ 100 nM |  |  |  | 
CN1CCN(c2ccc(-c3cccc(C4CCC(=O)NC4=O)c3Cl)cc2)C(=O)C1 (stereo not shown) [Compound 331] | 91.6% | > 90% | 17.2 nM | ≤ 100 nM |  |  |  | 
CC1CN(Cc2ccc(-c3cccc(C4CCC(=O)NC4=O)c3Cl)cc2)C(=O)C(C)O1 (stereo not shown) [Compound 267] | 96.4% | > 90% | 11.5 nM | ≤ 100 nM |  |  |  | 
Cc1cccc(=O)n1-c1ccc(-c2cccc(C3CCC(=O)NC3=O)c2Cl)cc1 (stereo not shown) [Compound 214, 3-(2-chloro-4′-(6-methyl-2-oxopyridin-1(2H)-yl)-[1,1′-biphenyl]-3-yl)piperidine-2,6-dione] | 97.5% | > 90% | 3.61 nM | ≤ 100 nM |  |  |  | 
O=C1CCC(c2cccc(-c3ccc4c(c3)CCN4)c2Cl)C(=O)N1 (stereo not shown) [Compound 490, 3-(2-chloro-3-(indolin-5-yl)phenyl)piperidine-2,6-dione] |  |  |  |  | 74.5% | 60 to 90% | 131 nM | 100 to 1000 nM
O=C1CCC(c2cccc(-c3ccc(CN4CCOCC4=O)cc3)c2Cl)C(=O)N1 (stereo not shown) [Compound 302] | 78% | 60 to 90% | 92.1 nM | ≤ 100 nM |  |  |  | 
CN1Cc2cccc(-c3ccc(-c4cccc(C5CCC(=O)NC5=O)c4Cl)cc3)c2C1=O (stereo not shown) [Compound 439, 3-(2-chloro-4′-(2-methyl-3-oxoisoindolin-4-yl)-[1,1′-biphenyl]-3-yl)piperidine-2,6-dione] | 89.3% | 60 to 90% | 4.48 nM | ≤ 100 nM |  |  |  | 

SMILES | Dmax [1] | Dmax [2] | DC50 [3] | DC50 [4] | Dmax (luminescence read at 6 and 24 hours after compound addition, read-out: VAV1 Dmax %) | Dmax (luminescence read at 6 and 24 hours after compound addition, read-out: VAV1 Dmax %, class) | DC50 (luminescence read at 6 and 24 hours after compound addition, read-out: VAV1 DC50) | DC50 (luminescence read at 6 and 24 hours after compound addition, read-out: VAV1 DC50 (nM), class)
O=C1CCC(c2cccc(-c3ccc(N4C(=O)OCC45CCC5)cc3)c2Cl)C(=O)N1 (stereo not shown) [Compound 416, 3-(2-chloro-4′-(6-oxo-7-oxa-5-azaspiro[3.4]octan-5-yl)-[1,1′-biphenyl]-3-yl)piperidine-2,6-dione] | 98% | > 90% | 3.54 nM | ≤ 100 nM |  |  |  | 
O=C1CCC(c2cccc(-c3ccc(CN4CC5(F)CC(C5)C4=O)cc3)c2Cl)C(=O)N1 (stereo not shown) [Compound 269] | 96.9% | > 90% | 6.83 nM | ≤ 100 nM |  |  |  | 
Cn1ccc(COc2ccc(-c3c(C#N)ccc(C4CCC(=O)NC4=O)c3Cl)cc2)n1 (stereo not shown) [Compound 179] | 32.8% | < 60% | ≥ 10000 nM | > 1000 nM |  |  |  | 
O=C1CCC(c2cccc(-c3ccc(N4CCOCC4=O)cc3)c2Cl)C(=O)N1 (stereo not shown) [Compound 336] | 93.5% | > 90% | 17.4 nM | ≤ 100 nM |  |  |  | 
Cc1cnc(Cc2ccc(-c3cccc(C4CCC(=O)NC4=O)c3Cl)cc2)nc1 (stereo not shown) [Compound 420, 3-(2-chloro-4′-((5-methylpyrimidin-2-yl)methyl)-[1,1′-biphenyl]-3-yl)piperidine-2,6-dione] | 98.8% | > 90% | 2.43 nM | ≤ 100 nM |  |  |  | 
O=C1CCC(c2cccc(-c3ccc(Cn4ccc(C(F)(F)F)cc4=O)cc3)c2Cl)C(=O)N1 (stereo not shown) [Compound 171, 3-(2-chloro-4′-((2-oxo-4-(trifluoromethyl)pyridin-1(2H)-yl)methyl)-[1,1′-biphenyl]-3-yl)piperidine-2,6-dione] | 94.9% | > 90% | 93.8 nM | ≤ 100 nM |  |  |  | 
O=C1CCC(c2cccc(-c3ccc(-n4ccccc4=O)nc3)c2Cl)C(=O)N1 (stereo not shown) [Compound 477, 3-(2-chloro-3-(2-oxo-2H-[1,2′-bipyridin]-5′-yl)phenyl)piperidine-2,6-dione] | 88.7% | 60 to 90% | 65.6 nM | ≤ 100 nM |  |  |  | 
O=C1CCC(c2cccc(-c3cnc(-n4ccccc4=O)nc3)c2Cl)C(=O)N1 (stereo not shown) [Compound 474, 3-(2-chloro-3-(2-(2-oxopyridin-1(2H)-yl)pyrimidin-5-yl)phenyl)piperidine-2,6-dione] | 35.3% | < 60% | ≥ 10000 nM | > 1000 nM |  |  |  | 
CN1CCCN(c2ncc(-c3cccc(C4CCC(=O)NC4=O)c3Cl)cc2F)C1=O (stereo not shown) [Compound 382, 3-(2-chloro-3-(5-fluoro-6-(3-methyl-2-oxotetrahydropyrimidin-1(2H)-yl)pyridin-3-yl)phenyl)piperidine-2,6-dione] | 76% | 60 to 90% | 167 nM | 100 to 1000 nM |  |  |  | 
O=C1CCC(c2cccc(-c3ccc(N4CCn5nccc5C4=O)cc3)c2Cl)C(=O)N1 (stereo not shown) [Compound 321] | 88.1% | 60 to 90% | 22.5 nM | ≤ 100 nM |  |  |  | 
Cc1cc(OCc2ccn(C)n2)ccc1-c1ccc(Cl)c(C2CCC(=O)NC2=O)c1 (stereo not shown) [Compound 152] | 8.11% | < 60% | ≥ 10000 nM | > 1000 nM |  |  |  | 
Cn1ccc(Cc2nn(C)c3cc(-c4cccc(C5CCC(=O)NC5=O)c4Cl)ccc23)n1 (stereo not shown) [Compound 480, 3-(2-chloro-3-(1-methyl-3-((1-methyl-1H-pyrazol-3-yl)methyl)-1H-indazol-6-yl)phenyl)piperidine-2,6-dione] | 96.7% | > 90% | 8.08 nM | ≤ 100 nM |  |  |  | 
Cc1nc(Cc2ccc(-c3cccc(C4CCC(=O)NC4=O)c3Cl)cc2)no1 (stereo not shown) [Compound 473, 3-(2-chloro-4′-((5-methyl-1,2,4-oxadiazol-3-yl)methyl)-[1,1′-biphenyl]-3-yl)piperidine-2,6-dione] | 96.2% | > 90% | 9.34 nM | ≤ 100 nM |  |  |  | 
O=C1CCC(c2cccc(-c3ccc(N4CCC5CC5C4=O)cc3)c2Cl)C(=O)N1 (stereo not shown) [Compound 312] | 96.1% | > 90% | 7.99 nM | ≤ 100 nM |  |  |  | 
O=C1CCC(c2cccc(-c3ccc(CN4Cc5cnccc5C4=O)cc3)c2Cl)C(=O)N1 (stereo not shown) [Compound 300] | 94.3% | > 90% | 17.1 nM | ≤ 100 nM |  |  |  | 
